In patent publication US9708314B2, “Heterocyclic amide compound” (NISSAN CHEMICAL INDUSTRIES, LTD., priority 2013, dated 2017):

Legend:
Type in all cases: in vivo
[1] = test system: Echinochloa crus-galli var. crus-galli; assay: Test Example 3: herbicidal effect by application to foliage (Wagner pot, water depth 0.1-0.5 cm); settings: Nineteenth Table; application to foliage; application herbicide amount 320 g/ha
Outline: (§1)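 Plants are raised 14 days from seed in flooded-surface Wagner pots at 25–30 °C, sprayed on stems and leaves with diluted emulsion at a predetermined rate, and rated three weeks on using a 0–5 herbicidal-ratio scale (5 ≥90%).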

[2] = test system: Leptochloa chinensis; assay: as above; settings: Nineteenth Table; application to foliage; application herbicide amount 320 g/ha
Outline: as §1

[3] = test system: Cyperus difformis; assay: as above; settings: Nineteenth Table; application to foliage; application herbicide amount 320 g/ha
Outline: as §1

[4] = test system: Stellaria media; assay: Test Example 4: herbicidal effect by application to foliage (diluvial soil, plastic box); settings: foliage application, 320 g/ha
Outline: (§2)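 Scores run from 0 (herbicidal ratio ≤5%) to 5 (≥90%, almost fully withered) and were assessed three weeks after foliar spraying. Seedlings had been raised for 14 days at 25-30° C in sterilized diluvial soil before treatment, with the emulsion diluted in water to the stated g/ha dose.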

[5] = test system: Galium spurium; assay: as above; settings: foliage application, 320 g/ha
Outline: as §2

[6] = test system: Setaria viridis; assay: as above; settings: foliage application, 320 g/ha
Outline: as §2

[7] = test system: Veronica persica; assay: as above; settings: foliage application, 320 g/ha
Outline: as §2

[8] = test system: Alopecurus myosuroides; assay: as above; settings: foliage application, 320 g/ha
Outline: as §2

[9] = test system: Digitaria ciliaris; assay: as above; settings: foliage application, 320 g/ha
Outline: as §2

Row | Structure (SMILES) | H (herbicidal effect grade) [1] | D (herbicidal effect grade) [2] | E (herbicidal effect grade) [3] | P (Stellaria media) herbicidal effect grade [4] | Q (Galium spurium) herbicidal effect grade [5] | G (Setaria viridis) herbicidal effect grade [6] | R (Veronica persica) herbicidal effect grade [7] | J (Alopecurus myosuroides) herbicidal effect grade [8] | F (Digitaria ciliaris) herbicidal effect grade [9]
1 | CSCCc1nnc2c(C(=O)Nc3nnnn3C)ccc(C(F)(F)F)n12 [2-057] | 5 (Herbicidal ratio of 90% or more (almost completely withered)) | 5 (Herbicidal ratio of 90% or more (almost completely withered)) | 5 (Herbicidal ratio of 90% or more (almost completely withered)) | 5 (Herbicidal ratio of 90% or more (almost completely withered)) | 4 (Herbicidal ratio of 70% or more and less than 90%) | 5 (Herbicidal ratio of 90% or more (almost completely withered)) | 5 (Herbicidal ratio of 90% or more (almost completely withered)) | 4 (Herbicidal ratio of 70% or more and less than 90%) | 5 (Herbicidal ratio of 90% or more (almost completely withered))
2 | Cn1nnnc1NC(=O)c1ccc(C(F)(F)F)n2c(CC[S+](C)[O-])nnc12 (stereo not drawn) [2-058] | 5 (Herbicidal ratio of 90% or more (almost completely withered)) | 5 (Herbicidal ratio of 90% or more (almost completely withered)) | 5 (Herbicidal ratio of 90% or more (almost completely withered)) | 5 (Herbicidal ratio of 90% or more (almost completely withered)) | 5 (Herbicidal ratio of 90% or more (almost completely withered)) | 5 (Herbicidal ratio of 90% or more (almost completely withered)) | 5 (Herbicidal ratio of 90% or more (almost completely withered)) | 4 (Herbicidal ratio of 70% or more and less than 90%) | 5 (Herbicidal ratio of 90% or more (almost completely withered))
3 | Cn1nnnc1NC(=O)c1ccc(C(F)(F)F)n2c(CCS(C)(=O)=O)nnc12 [2-059] | 5 (Herbicidal ratio of 90% or more (almost completely withered)) | 5 (Herbicidal ratio of 90% or more (almost completely withered)) | 5 (Herbicidal ratio of 90% or more (almost completely withered)) | 5 (Herbicidal ratio of 90% or more (almost completely withered)) | 5 (Herbicidal ratio of 90% or more (almost completely withered)) | 5 (Herbicidal ratio of 90% or more (almost completely withered)) | 5 (Herbicidal ratio of 90% or more (almost completely withered)) | 4 (Herbicidal ratio of 70% or more and less than 90%) | 5 (Herbicidal ratio of 90% or more (almost completely withered))
4 | Cn1nnnc1NC(=O)c1ccc(C(F)(F)F)n2c(-c3ccc(Cl)nc3)nnc12 [2-060] | 5 (Herbicidal ratio of 90% or more (almost completely withered)) | 5 (Herbicidal ratio of 90% or more (almost completely withered)) | 5 (Herbicidal ratio of 90% or more (almost completely withered)) | 5 (Herbicidal ratio of 90% or more (almost completely withered)) | 4 (Herbicidal ratio of 70% or more and less than 90%) | 5 (Herbicidal ratio of 90% or more (almost completely withered)) | 5 (Herbicidal ratio of 90% or more (almost completely withered)) | 3 (Herbicidal ratio of 40% or more and less than 70%) | 5 (Herbicidal ratio of 90% or more (almost completely withered))
5 | Cn1nnnc1NC(=O)c1ccc(C(F)(F)F)n2c(-c3cccs3)nnc12 [2-061] | 5 (Herbicidal ratio of 90% or more (almost completely withered)) | 5 (Herbicidal ratio of 90% or more (almost completely withered)) | 5 (Herbicidal ratio of 90% or more (almost completely withered)) | 5 (Herbicidal ratio of 90% or more (almost completely withered)) | 3 (Herbicidal ratio of 40% or more and less than 70%) | 5 (Herbicidal ratio of 90% or more (almost completely withered)) | 5 (Herbicidal ratio of 90% or more (almost completely withered)) | 3 (Herbicidal ratio of 40% or more and less than 70%) | 5 (Herbicidal ratio of 90% or more (almost completely withered))
6 | Cc1cc(-c2nnc3c(C(=O)Nc4nnnn4C)ccc(C(F)(F)F)n23)n(C)n1 [2-062] | 5 (Herbicidal ratio of 90% or more (almost completely withered)) | 5 (Herbicidal ratio of 90% or more (almost completely withered)) | 5 (Herbicidal ratio of 90% or more (almost completely withered)) | 5 (Herbicidal ratio of 90% or more (almost completely withered)) | 5 (Herbicidal ratio of 90% or more (almost completely withered)) | 5 (Herbicidal ratio of 90% or more (almost completely withered)) | 5 (Herbicidal ratio of 90% or more (almost completely withered)) | 4 (Herbicidal ratio of 70% or more and less than 90%) | 5 (Herbicidal ratio of 90% or more (almost completely withered))
7 | COc1cc(OC)cc(-c2nnc3c(C(=O)Nc4nnnn4C)ccc(C(F)(F)F)n23)c1 [2-063] | 5 (Herbicidal ratio of 90% or more (almost completely withered)) | 5 (Herbicidal ratio of 90% or more (almost completely withered)) | 5 (Herbicidal ratio of 90% or more (almost completely withered)) | 5 (Herbicidal ratio of 90% or more (almost completely withered)) | 4 (Herbicidal ratio of 70% or more and less than 90%) | 5 (Herbicidal ratio of 90% or more (almost completely withered)) | 5 (Herbicidal ratio of 90% or more (almost completely withered)) | 3 (Herbicidal ratio of 40% or more and less than 70%) | 5 (Herbicidal ratio of 90% or more (almost completely withered))
8 | Cn1nnnc1NC(=O)c1ccc(C(F)(F)F)n2c(-c3cc(Cl)cc(Cl)c3)nnc12 [2-064] | 1 (Herbicidal ratio of 5% or more and less than 20%) | 4 (Herbicidal ratio of 70% or more and less than 90%) | 5 (Herbicidal ratio of 90% or more (almost completely withered)) | 5 (Herbicidal ratio of 90% or more (almost completely withered)) | 1 (Herbicidal ratio of 5% or more and less than 20%) | 2 (Herbicidal ratio of 20% or more and less than 40%) | 5 (Herbicidal ratio of 90% or more (almost completely withered)) | 0 (Herbicidal ratio of 5% or less (almost no effect)) | 3 (Herbicidal ratio of 40% or more and less than 70%)
9 | COc1ccc(Cc2nnc3c(C(=O)Nc4nnnn4C)ccc(C(F)(F)F)n23)cc1 [2-065] | 5 (Herbicidal ratio of 90% or more (almost completely withered)) | 5 (Herbicidal ratio of 90% or more (almost completely withered)) | 5 (Herbicidal ratio of 90% or more (almost completely withered)) | 5 (Herbicidal ratio of 90% or more (almost completely withered)) | 3 (Herbicidal ratio of 40% or more and less than 70%) | 5 (Herbicidal ratio of 90% or more (almost completely withered)) | 5 (Herbicidal ratio of 90% or more (almost completely withered)) | 3 (Herbicidal ratio of 40% or more and less than 70%) | 5 (Herbicidal ratio of 90% or more (almost completely withered))
10 | CC(C)Nc1nnc2c(C(=O)Nc3nnnn3C)ccc(C(F)(F)F)n12 [2-066] | 5 (Herbicidal ratio of 90% or more (almost completely withered)) | 5 (Herbicidal ratio of 90% or more (almost completely withered)) | 5 (Herbicidal ratio of 90% or more (almost completely withered)) | 5 (Herbicidal ratio of 90% or more (almost completely withered)) | 3 (Herbicidal ratio of 40% or more and less than 70%) | 5 (Herbicidal ratio of 90% or more (almost completely withered)) | 5 (Herbicidal ratio of 90% or more (almost completely withered)) | 3 (Herbicidal ratio of 40% or more and less than 70%) | 5 (Herbicidal ratio of 90% or more (almost completely withered))
